Measured values taken from patent publication US5578601A, “Nonpeptide bradykinin antagonists” (Sterling Winthrop Inc., priority 1995, dated 1996).
Where a name gives a salt, the structure may show the parent alone. Read-outs that look alike come from different tables or passages of the source.

How the values were obtained:
[1] = biological target: T1, bradykinin B2 receptor (Homo sapiens, UniProt P30411); experiment: [3H]-bradykinin radioligand competitive binding to human IMR-90 fetal lung fibroblasts (bradykinin B2 receptor); details: human IMR-90 cells, 2 h, 4° C, pH 7.4, mean values from 2-3 experiments
T1 construct: These cells contain the bradykinin B2 receptor as previously described; endogenous in cells; host or cells: human IMR-90 fetal lung fibroblasts
T1 sequence (P30411 1-391): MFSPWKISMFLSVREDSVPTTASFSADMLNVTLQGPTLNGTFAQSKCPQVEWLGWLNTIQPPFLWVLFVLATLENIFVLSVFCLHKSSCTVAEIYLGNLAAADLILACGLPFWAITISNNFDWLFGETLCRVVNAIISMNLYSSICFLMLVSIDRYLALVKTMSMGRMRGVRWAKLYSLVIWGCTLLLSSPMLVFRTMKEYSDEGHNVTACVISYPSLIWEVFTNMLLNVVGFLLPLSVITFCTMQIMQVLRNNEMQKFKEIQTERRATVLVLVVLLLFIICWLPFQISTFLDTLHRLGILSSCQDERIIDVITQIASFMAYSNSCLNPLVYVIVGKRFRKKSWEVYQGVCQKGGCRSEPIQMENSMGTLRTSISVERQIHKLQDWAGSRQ
Experimental: The receptor binding affinity (KI) of the compounds of the present invention was determined in [^3 H]-bradykinin radioligand binding studies using human IMR-90 fetal lung fibroblasts. […] Briefly stated, harvested IMR-90 cells were resuspended to the desired cell concentration in ice cold buffer containing phosphate buffered saline (PBS) pH-7.4, sodium azide (0.02%), 0.1% BSA, PMSF (1 mM), DTT (1 mM), and captopril (1 mM). For competitive inhibition binding studies, cells were incubated with bradykinin (1-2 nM) in the absence or presence of increasing concentrations of competing compound. All assay mixtures were incubated for 2 hours at 4° C. The binding assays were terminated by filtration through Whatman GF/B filters on a Brandel Cell Harvester and the filters were washed with 3×1 ml aliquots of ice cold PBS containing 0.1% BSA. All filters were presoaked in 0.1% polyethylenimine to decrease nonspecific filter binding.

[2] = tested on: inflammation and hyperalgesia; details: intraplantar carrageenan; cited from earlier work
[3] = tested on: nociception/hyperalgesia; details: several different animal models of nociception/hyperalgesia; cited from earlier work
[4] = tested on: rhinovirus infection; details: intranasal, experimentally induced infection; cited from earlier work

| Molecule | Ki ([1]; read-out: IMR 90 Ki) [nM] | further results |
| --- | --- | --- |
| CCCC[P+](CCCC)(CCCC)Cc1ccc(NC(=O)C(Cc2ccc(C(=O)c3ccccc3)cc2)NC(=NC2CCCCC2)NC2CCCCC2)cc1 (stereo not shown) [Example 3, Phosphonium, [[4-[[3-(4-benzoylphenyl)-2-[[bis(cyclohexylamino)methylene]amino]-1-oxopropyl]amino]phenyl]methyl]tributyl-, chloride, monohydrochloride] | 5800 | – |
| CCCC[P+](CCCC)(CCCC)Cc1ccc(NC(=O)C(Cc2ccc3ccccc3c2)N=C(NCCC)NCCCc2ccccc2)cc1 (stereo not shown) [Example 10, Phosphonium, tributyl[[4-[[3-(2-naphthalenyl)-1-oxo-2-[[[(3-phenylpropyl)amino](propylamino)methylene]amino]propyl]amino]phenyl]methyl]-, chloride, monohydrochloride] | 1950 | – |
| CCCC[P+](CCCC)(CCCC)Cc1ccc(NC(=O)C(Cc2csc3ccccc23)N=C(NC2CCCCC2)NC2CCCCC2)cc1 (stereo not shown) [Example 13, Phosphonium, [[4-[[3-benzo[b]thien-3-yl-2-[[bis(cyclohexylamino)methylene]amino]-1-oxopropyl]amino]phenyl]methyl]tributyl-, chloride, monohydrochloride] | 430 | – |
| CCCC[P+](CCCC)(CCCC)Cc1cccc(NC(=O)C(Cc2ccc3ccccc3c2)N=C(NC2CCCCC2)NC2CCCCC2)c1 (stereo not shown) [Example 17, Phosphonium, [[3-[[2-[[bis(cyclohexylamino)methylene]amino]-3-(2-naphthalenyl)-1-oxopropyl]amino]phenyl]methyl]tributyl-, chloride, monohydrochloride] | 3000 | – |
| O=C(NC1CN2CCC1CC2)C(Cc1ccc(Cl)cc1)NC(=NC1CCCCC1)NC1CCCCC1 (stereo not drawn) [Example 22, 4-chlorophenylpropanamide, N-1-azabicyclo[2.2.2]oct-3-yl-α-[[bis(cyclohexylamino)methylene]amino]-, dihydrochloride] | – | Ki ([1]; IMR 90 Ki): 2900 nM |
| O=C(Nc1cccc2cnccc12)C(Cc1ccc2ccccc2c1)N=C(NC1CCCCC1)NC1CCCCC1 (stereo not drawn) [Example 24, 2-Naphthalenepropanamide, α-[[bis(cyclohexylamino)methylene]amino]-N-5-isoquinolinyl-, monohydrochloride] | 2540 | – |
| O=C(NCc1nc2ccccc2[nH]1)C(Cc1ccc2ccccc2c1)N=C(NC1CCCCC1)NC1CCCCC1 (stereo not drawn) [Example 25, 2-Naphthalenepropanamide, N-(1H-benzimidazol-2-ylmethyl)-α-[[bis(cyclohexylamino)methylene]amino]-, monohydrochloride] | 5300 | – |
| NPC-567 | – | antagonism of inflammation and hyperalgesia [2]: antagonized; antinociceptive activity [3]: antinociceptive; beneficial effects on the course of rhinovirus infection [4]: failed to demonstrate beneficial effects |
